Read-outs that look alike come from different tables or passages of the source.
Experiments:
[1] = target: T1, mTOR (Homo sapiens, UniProt P42345); assay: mTOR assay (LanthaScreen kinase activity assay); format: biochemical
T1 construct: purchased Invitrogen PV4754
Procedure: The enzymatic mTOR activity was measured using a LanthaScreen™ kinase activity assay (Invitrogen). The enzyme was purchased from Invitrogen (PV4754), as well as the GFP-labeled substrate (4EBP1-GFP; PV4759) and the Tb-anti-p4EBP1(pThr46) antibody (PV4757). The assay was performed in 50 mM HEPES buffer, pH 7.5, containing 1.5 mM MnCl2, 10 mM MgCl2, 1 mM EGTA, 2.5 mM DTT and 0.01% Tween-20. The concentration of the assay components were the following: 0.24 nM mTOR kinase, 400 nM 4EBP1-GFP, […] and serial dilutions of the compound (inhibitor) to be evaluated. After 1 h incubation at room temperature, 20 mM EDTA was used to stop the reaction and terbium-labeled antibody (4 nM) added to detect phosphorylated product. The antibody associates with the phosphorylated product resulting in an increased TR-FRET value. The TR-FRET value (a dimensionless number) was calculated as the ratio of the acceptor signal (GFP, emission at 520 nm) to the donor signal (terbium, emission at 495 nm). Values were plotted against the inhibitor concentration and fitted to a sigmoid dose-response curve using GraphPad software.

[2] = target: T2, PI3K (p110α/p85α) (Homo sapiens, UniProt P42336); assay: PI3K activity assay (ADP Hunter Plus); format: biochemical
T2 construct: purchased Carna Biosciences 07CBS-0402A
Procedure: The kinase activity was measured by using the commercial ADP Hunter™ Plus assay available from DiscoveRx (#33-016), which is a homogeneous assay to measure the accumulation of ADP, a universal product of kinase activity. […] Reaction was carried out for 1 hour at 25° C. Reagent A and B were sequentially added to the wells and plates were incubated for 30 min at 37° C. Fluorescence counts were read in a Victor instrument (Perkin Elmer) with the recommended settings (544 and 580 nm as excitation and emission wavelengths, respectively). Values were normalized against the control activity included for each enzyme (i.e., 100% PI3 kinase activity, without compound). These values were plotted against the inhibitor concentration and were fit to a sigmoid dose-response curve by using the Graphad software.

[3] = target: T3, PIM-1 (Homo sapiens, UniProt P11309); assay: PIM-1 biochemical assay (ADP Hunter); details: PIM1
T3 construct: histidine tag (C); made in house
Text: The biochemical assay to measure PIM-1 activity relies on the ADP Hunter assay kit (DiscoveRx Corp., Cat. #90-0077), that determines the amount of ADP as direct product of the kinase enzyme activity.
The enzyme has been expressed and purified in-house as a recombinant human protein with a C-terminal histidine tag. The protein is active and stable.
Assay conditions were as indicated by the kit manufacturers with the following adaptations for the kinase activity step: • Kinase assay buffer and assay volume stay as recommended (15 mM HEPES, pH 7.4, 20 mM NaCl, 1 mM EGTA, 0.02% Tween 20, 10 mM MgCl2 and 0.1 mg/ml bovine γ-globulins/75 μl assay volume) • Incubation time and temperature: 60 min at 30° C. • PIM-1 concentration: 50 pg/μl • ATP concentration: 100 μM • PIM-1 substrate peptide: PIMtide ([…]) (SEQIDNO. 1) • Peptide concentration: 60 μM • Positive control for kinase activity inhibition: 1-10 μM Staurosporine • DMSO concentration have to stay below 2% during the kinase reaction
Assays were performed in either 96 or 384-well plates. The final outcome of the coupled reactions provided by the kit is the release of the fluorescent product Resorufin and has been measured with a multilabel HTS counter VICTOR V (PerkinElmer) using an excitation filter at 544 nm and an emission filter at 580 nm.

[4] = read-out: mTOR activity, IC50 (semi-quantitative class)
[5] = read-out: mTOR actual IC50 (in parentheses)
[6] = read-out: PI3K alpha activity, IC50 (semi-quantitative class)
[7] = read-out: PI3K alpha actual IC50 (in parentheses)
[8] = read-out: PIM-1 activity, IC50 (semi-quantitative class)
[9] = read-out: PIM-1 actual IC50 (in parentheses)

T3 sequence (P11309 whole entry): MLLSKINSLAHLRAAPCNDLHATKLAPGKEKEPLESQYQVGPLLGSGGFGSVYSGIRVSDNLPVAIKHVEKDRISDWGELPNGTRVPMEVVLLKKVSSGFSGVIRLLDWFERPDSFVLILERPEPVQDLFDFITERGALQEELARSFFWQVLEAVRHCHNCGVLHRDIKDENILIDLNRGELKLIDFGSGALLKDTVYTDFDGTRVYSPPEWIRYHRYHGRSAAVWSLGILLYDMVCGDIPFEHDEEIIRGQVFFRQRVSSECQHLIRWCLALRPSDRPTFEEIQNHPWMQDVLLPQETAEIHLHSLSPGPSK
T1 sequence (P42345 1360-2549 limits assumed): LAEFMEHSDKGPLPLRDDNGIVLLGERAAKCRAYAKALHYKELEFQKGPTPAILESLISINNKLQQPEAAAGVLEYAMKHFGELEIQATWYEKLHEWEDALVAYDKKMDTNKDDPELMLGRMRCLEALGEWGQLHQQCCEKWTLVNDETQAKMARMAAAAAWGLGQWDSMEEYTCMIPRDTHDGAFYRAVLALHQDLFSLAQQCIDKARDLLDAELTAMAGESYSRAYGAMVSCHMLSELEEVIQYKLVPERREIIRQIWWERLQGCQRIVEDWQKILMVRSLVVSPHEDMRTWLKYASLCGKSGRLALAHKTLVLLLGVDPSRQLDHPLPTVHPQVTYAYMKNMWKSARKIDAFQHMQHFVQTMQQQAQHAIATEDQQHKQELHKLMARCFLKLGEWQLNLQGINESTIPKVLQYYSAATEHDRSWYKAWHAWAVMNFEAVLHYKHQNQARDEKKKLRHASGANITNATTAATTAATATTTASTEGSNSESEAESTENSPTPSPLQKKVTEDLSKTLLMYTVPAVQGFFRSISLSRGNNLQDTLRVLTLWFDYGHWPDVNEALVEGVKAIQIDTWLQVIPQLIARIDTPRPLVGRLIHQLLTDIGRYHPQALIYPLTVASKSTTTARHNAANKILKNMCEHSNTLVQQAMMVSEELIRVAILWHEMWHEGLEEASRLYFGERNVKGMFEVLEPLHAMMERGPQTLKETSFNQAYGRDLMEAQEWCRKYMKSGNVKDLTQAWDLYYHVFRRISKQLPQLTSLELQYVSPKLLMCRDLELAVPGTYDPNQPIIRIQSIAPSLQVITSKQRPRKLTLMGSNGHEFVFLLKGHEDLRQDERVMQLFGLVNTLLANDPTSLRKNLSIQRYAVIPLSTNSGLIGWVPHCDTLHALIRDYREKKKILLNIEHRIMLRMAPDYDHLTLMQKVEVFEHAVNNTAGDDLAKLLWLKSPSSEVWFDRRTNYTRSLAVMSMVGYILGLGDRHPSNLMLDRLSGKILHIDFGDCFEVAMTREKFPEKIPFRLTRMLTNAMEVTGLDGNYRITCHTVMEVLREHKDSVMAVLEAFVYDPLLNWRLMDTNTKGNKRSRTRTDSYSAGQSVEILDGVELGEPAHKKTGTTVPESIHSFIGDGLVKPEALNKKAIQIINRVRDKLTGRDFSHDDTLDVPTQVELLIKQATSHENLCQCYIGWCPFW
T2 sequence (P42336 whole entry): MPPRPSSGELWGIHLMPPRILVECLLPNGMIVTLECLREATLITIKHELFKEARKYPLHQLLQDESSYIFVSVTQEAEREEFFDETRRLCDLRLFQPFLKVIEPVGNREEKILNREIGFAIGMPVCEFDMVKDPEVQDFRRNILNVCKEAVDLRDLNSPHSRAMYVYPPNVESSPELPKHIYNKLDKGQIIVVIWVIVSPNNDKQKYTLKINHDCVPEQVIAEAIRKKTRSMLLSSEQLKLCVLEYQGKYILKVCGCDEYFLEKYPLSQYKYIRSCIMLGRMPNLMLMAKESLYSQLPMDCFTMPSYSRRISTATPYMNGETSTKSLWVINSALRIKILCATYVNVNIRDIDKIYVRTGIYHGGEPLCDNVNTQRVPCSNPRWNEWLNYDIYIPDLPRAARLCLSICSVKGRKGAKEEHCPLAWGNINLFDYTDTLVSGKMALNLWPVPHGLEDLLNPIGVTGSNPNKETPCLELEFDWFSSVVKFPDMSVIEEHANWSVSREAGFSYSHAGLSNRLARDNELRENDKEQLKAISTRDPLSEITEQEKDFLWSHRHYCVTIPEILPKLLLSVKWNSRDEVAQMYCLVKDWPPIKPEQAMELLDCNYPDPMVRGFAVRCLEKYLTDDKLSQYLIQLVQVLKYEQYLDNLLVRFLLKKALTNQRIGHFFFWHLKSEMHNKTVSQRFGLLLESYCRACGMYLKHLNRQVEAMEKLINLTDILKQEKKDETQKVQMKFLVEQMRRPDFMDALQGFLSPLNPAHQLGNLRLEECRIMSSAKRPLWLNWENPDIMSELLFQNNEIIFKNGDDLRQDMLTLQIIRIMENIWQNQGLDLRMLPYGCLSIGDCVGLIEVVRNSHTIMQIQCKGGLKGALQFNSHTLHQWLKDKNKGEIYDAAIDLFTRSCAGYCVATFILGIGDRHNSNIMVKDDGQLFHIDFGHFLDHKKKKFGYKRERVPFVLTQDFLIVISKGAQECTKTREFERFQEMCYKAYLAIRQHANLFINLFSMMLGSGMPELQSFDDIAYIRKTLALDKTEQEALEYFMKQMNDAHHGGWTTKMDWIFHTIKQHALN
T2 sequence (P27986 whole entry partner): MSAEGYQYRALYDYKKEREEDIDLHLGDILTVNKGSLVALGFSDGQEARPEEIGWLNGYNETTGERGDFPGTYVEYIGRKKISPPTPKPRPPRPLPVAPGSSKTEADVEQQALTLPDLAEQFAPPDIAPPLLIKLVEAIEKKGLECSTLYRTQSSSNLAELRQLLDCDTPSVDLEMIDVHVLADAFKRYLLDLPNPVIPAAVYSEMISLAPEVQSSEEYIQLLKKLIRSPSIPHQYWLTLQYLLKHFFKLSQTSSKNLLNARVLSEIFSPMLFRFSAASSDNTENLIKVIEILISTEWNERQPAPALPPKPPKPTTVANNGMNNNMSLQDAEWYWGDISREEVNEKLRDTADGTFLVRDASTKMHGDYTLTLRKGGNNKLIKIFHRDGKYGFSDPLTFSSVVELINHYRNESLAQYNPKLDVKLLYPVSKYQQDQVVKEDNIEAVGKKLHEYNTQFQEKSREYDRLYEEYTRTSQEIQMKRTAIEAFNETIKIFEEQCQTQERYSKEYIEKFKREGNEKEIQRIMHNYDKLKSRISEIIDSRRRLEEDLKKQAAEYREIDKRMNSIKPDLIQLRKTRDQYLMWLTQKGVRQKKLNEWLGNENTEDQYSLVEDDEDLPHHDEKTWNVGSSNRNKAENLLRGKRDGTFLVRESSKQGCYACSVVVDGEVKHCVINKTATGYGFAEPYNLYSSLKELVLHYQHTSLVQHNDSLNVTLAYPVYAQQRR

COc1ncc2cc1NS(=O)(=O)c1cccc(c1)C(=O)NCc1cncc(c1)-c1cnc3ccc-2cn13 [compound 30]
IC50 [1, 4]: < 100 nM
IC50 [1, 5]: 49 nM
IC50 [2, 6]: < 100 nM
IC50 [2, 7]: 11 nM
IC50 [3, 8]: > 1000 nM

COc1ncc2cc1NS(=O)(=O)c1cccc(c1)C(=O)NCC1CCN(CC1)c1ncnc3ccc-2cc13 [compound 32]
IC50 [1, 4]: < 100 nM
IC50 [1, 5]: 5 nM
IC50 [2, 6]: < 100 nM
IC50 [2, 7]: 2 nM
IC50 [3, 8]: > 1000 nM

COc1ncc2cc1NS(=O)(=O)c1cccc(c1)C(=O)NCCn1cc(cn1)-c1cnc3ccc-2cn13 [compound 34]
IC50 [1, 4]: < 100 nM
IC50 [1, 5]: 66 nM
IC50 [2, 6]: < 100 nM
IC50 [2, 7]: 7.6 nM
IC50 [3, 8]: > 1000 nM

COc1ncc2cc1NS(=O)(=O)c1cccc(c1)C(=O)NCc1cccc(c1)-c1ccnc3ccc-2nc13 [compound 35]
IC50 [1, 4]: < 100 nM
IC50 [1, 5]: 16 nM
IC50 [2, 6]: < 100 nM
IC50 [2, 7]: 5 nM
IC50 [3, 8]: > 1000 nM

COc1ncc2cc1NS(=O)(=O)c1cccc(c1)C(=O)NCCn1cc(cn1)-c1ncnc3c1SC2=C3 [compound 36]
IC50 [1, 4]: > 1000 nM
IC50 [2, 6]: 100 to 1000 nM
IC50 [3, 8]: 100 to 1000 nM

COc1ncc2cc1NS(=O)(=O)c1cccc(c1)C(=O)NCc1cccc(c1)-c1ncnc3sc-2cc13 [compound 37]
IC50 [1, 4]: > 1000 nM
IC50 [2, 6]: < 100 nM
IC50 [2, 7]: 20 nM
IC50 [3, 8]: > 1000 nM

COc1ncc2cc1NS(=O)(=O)c1cccc(c1)C(=O)NCC1CCN(CC1)c1ncnc3cc-2sc13 [compound 38]
IC50 [1, 4]: > 1000 nM
IC50 [2, 6]: > 1000 nM
IC50 [3, 8]: > 1000 nM

COc1ncc2cc1NS(=O)(=O)c1cccc(c1)C(=O)NCCN1CC=C(CC1)c1cnc3ccc-2cn13 [compound 40]
IC50 [1, 4]: < 100 nM
IC50 [1, 5]: 36 nM
IC50 [2, 6]: < 100 nM
IC50 [2, 7]: 3 nM
IC50 [3, 8]: > 1000 nM

COc1ncc2cc1NS(=O)(=O)c1cccc(c1)C(=O)NCc1cncc(c1)-c1ncnc3ccc-2cc13 [compound 41]
IC50 [1, 4]: < 100 nM
IC50 [1, 5]: 16 nM
IC50 [2, 6]: < 100 nM
IC50 [2, 7]: 3 nM
IC50 [3, 8]: > 1000 nM

COc1ncc2cc1NS(=O)(=O)c1cccc(c1)C(=O)NCc1cc(ccn1)-c1ncnc3c1SC2=C3 [compound 42]
IC50 [1, 4]: > 1000 nM
IC50 [2, 6]: 100 to 1000 nM
IC50 [3, 8]: 100 to 1000 nM

O=C1NCc2cc(ccn2)-c2ncnc3c2SC(=C3)c2cncc(c2)NS(=O)(=O)c2cccc1c2 [compound 43]
IC50 [1, 4]: > 1000 nM
IC50 [2, 6]: < 100 nM
IC50 [2, 7]: 44 nM
IC50 [3, 8]: < 100 nM
IC50 [3, 9]: 41 nM

COc1ncc2cc1NS(=O)(=O)c1cc(c(F)cc1F)C(=O)NCc1cncc(c1)-c1ncnc3c1SC2=C3 [compound 44]
IC50 [1, 4]: > 1000 nM
IC50 [2, 6]: 100 to 1000 nM
IC50 [3, 8]: > 1000 nM

O=C1NCc2cncc(c2)-c2ncnc3c2SC(=C3)c2cnc(O)c(c2)NS(=O)(=O)c2cccc1c2 [compound 45]
IC50 [1, 4]: > 1000 nM
IC50 [2, 6]: > 1000 nM
IC50 [3, 8]: 100 to 1000 nM

COc1ncc2cc1N(C)S(=O)(=O)c1cccc(c1)C(=O)NCc1cncc(c1)-c1ncnc3c1SC2=C3 [compound 46]
IC50 [1, 4]: > 1000 nM
IC50 [2, 6]: > 1000 nM
IC50 [3, 8]: > 1000 nM

COc1ncc2cc1NS(=O)(=O)c1cccc(c1)C(=O)Nc1cncc(c1)-c1ncnc3c1SC2=C3 [compound 47]
IC50 [1, 4]: < 100 nM
IC50 [1, 5]: 8.5 nM
IC50 [2, 6]: < 100 nM
IC50 [2, 7]: 99 nM
IC50 [3, 8]: > 1000 nM

COc1ncc2cc1NS(=O)(=O)c1ccc(F)c(c1)C(=O)NCc1cncc(c1)-c1ncnc3c1SC2=C3 [compound 48]
IC50 [1, 4]: > 1000 nM
IC50 [2, 6]: < 100 nM
IC50 [2, 7]: 48 nM
IC50 [3, 8]: < 100 nM
IC50 [3, 9]: 52 nM

O=C1NCc2cncc(c2)-c2ccnc3ccc(cc23)-c2cncc(c2)NS(=O)(=O)c2cccc1c2 [compound 49]
IC50 [1, 4]: 100 to 1000 nM
IC50 [2, 6]: < 100 nM
IC50 [2, 7]: 68 nM
IC50 [3, 8]: > 1000 nM

CC(C)Oc1ncc2cc1NS(=O)(=O)c1cccc(c1)C(=O)NCc1cncc(c1)-c1ncnc3c1SC2=C3 [compound 50]
IC50 [1, 4]: > 1000 nM
IC50 [2, 6]: > 1000 nM
IC50 [3, 8]: > 1000 nM

COc1ncc2cc1NS(=O)(=O)c1cccc(c1)C(=O)NCCn1cc(cn1)-c1ncnc3c1OC2=C3 [compound 51]
IC50 [1, 4]: > 1000 nM
IC50 [2, 6]: 100 to 1000 nM
IC50 [3, 8]: > 1000 nM

COc1ncc2cc1NS(=O)(=O)c1cc(ccc1F)C(=O)NCc1cncc(c1)-c1ncnc3c1SC2=C3 [compound 52]
IC50 [1, 4]: > 1000 nM
IC50 [2, 6]: 100 to 1000 nM
IC50 [3, 8]: 100 to 1000 nM

COc1ncc2cc1NS(=O)(=O)c1cc(cc(C(F)(F)F)c1)C(=O)NCc1cncc(c1)-c1ncnc3c1SC2=C3 [compound 53]
IC50 [1, 4]: > 1000 nM
IC50 [2, 6]: > 1000 nM
IC50 [3, 8]: > 1000 nM

COc1ncc2cc1NS(=O)(=O)c1cccc(c1)C(=O)NCc1cncc(c1)-c1nc(C)nc3c1SC2=C3 [compound 54]
IC50 [1, 4]: > 1000 nM
IC50 [2, 6]: 100 to 1000 nM
IC50 [3, 8]: > 1000 nM

COc1ncc2cc1NS(=O)(=O)c1cccc(c1)C(=O)NCC1=CC=C(S1)c1ncnc3c1SC2=C3 [compound 55]
IC50 [1, 4]: > 1000 nM
IC50 [2, 6]: 100 to 1000 nM
IC50 [3, 8]: < 100 nM
IC50 [3, 9]: 12 nM

COc1ncc2cc1NS(=O)(=O)c1cccc(c1)C(=O)NCc1cncc(c1)-c1ncnc3c1SC2=C3C [compound 56]
IC50 [1, 4]: 100 to 1000 nM
IC50 [2, 6]: < 100 nM
IC50 [2, 7]: 13 nM
IC50 [3, 8]: < 100 nM
IC50 [3, 9]: 56 nM

COc1ncc2cc1NS(=O)(=O)c1cccc(c1)C(=O)NCCn1cc(cn1)-c1ncnc3c1SC2=C3C [compound 57]
IC50 [1, 4]: 100 to 1000 nM
IC50 [2, 6]: < 100 nM
IC50 [2, 7]: 0.8 nM
IC50 [3, 8]: 100 to 1000 nM

O=C1NCc2cncc(c2)-c2ncnc3c2SC(=C3)c2cnc(Cl)c(c2)NS(=O)(=O)c2cccc1c2 [compound 58]
IC50 [1, 4]: > 1000 nM
IC50 [2, 6]: < 100 nM
IC50 [2, 7]: 3.6 nM
IC50 [3, 8]: 100 to 1000 nM

CC(C)Oc1ncc2cc1NS(=O)(=O)c1cccc(c1)C(=O)NCCn1cc(cn1)-c1ncnc3c1SC2=C3 [compound 59]
IC50 [1, 4]: > 1000 nM
IC50 [2, 6]: > 1000 nM
IC50 [3, 8]: > 1000 nM

COc1ncc2cc1NS(=O)(=O)c1cccc(c1)C(=O)NCc1cncc(c1)-c1nc(C(C)C)nc3c1SC2=C3 [compound 60]
IC50 [1, 4]: > 1000 nM
IC50 [2, 6]: > 1000 nM
IC50 [3, 8]: > 1000 nM
